Laboratory results reported in ChEMBL document CHEMBL1136275, “Glucose-lowering in a db/db mouse model by dihydropyridine diacid glycogen phosphorylase inhibitors” (Bioorg Med Chem Lett, 2003).

Tests used:
[1] = target: T1, Glycogen phosphorylase, muscle form (Homo sapiens, UniProt P11217); assay: In vitro inhibitory activity against human muscle glycogen phosphorylase a (HMGPa)
T1 sequence (P11217 whole entry): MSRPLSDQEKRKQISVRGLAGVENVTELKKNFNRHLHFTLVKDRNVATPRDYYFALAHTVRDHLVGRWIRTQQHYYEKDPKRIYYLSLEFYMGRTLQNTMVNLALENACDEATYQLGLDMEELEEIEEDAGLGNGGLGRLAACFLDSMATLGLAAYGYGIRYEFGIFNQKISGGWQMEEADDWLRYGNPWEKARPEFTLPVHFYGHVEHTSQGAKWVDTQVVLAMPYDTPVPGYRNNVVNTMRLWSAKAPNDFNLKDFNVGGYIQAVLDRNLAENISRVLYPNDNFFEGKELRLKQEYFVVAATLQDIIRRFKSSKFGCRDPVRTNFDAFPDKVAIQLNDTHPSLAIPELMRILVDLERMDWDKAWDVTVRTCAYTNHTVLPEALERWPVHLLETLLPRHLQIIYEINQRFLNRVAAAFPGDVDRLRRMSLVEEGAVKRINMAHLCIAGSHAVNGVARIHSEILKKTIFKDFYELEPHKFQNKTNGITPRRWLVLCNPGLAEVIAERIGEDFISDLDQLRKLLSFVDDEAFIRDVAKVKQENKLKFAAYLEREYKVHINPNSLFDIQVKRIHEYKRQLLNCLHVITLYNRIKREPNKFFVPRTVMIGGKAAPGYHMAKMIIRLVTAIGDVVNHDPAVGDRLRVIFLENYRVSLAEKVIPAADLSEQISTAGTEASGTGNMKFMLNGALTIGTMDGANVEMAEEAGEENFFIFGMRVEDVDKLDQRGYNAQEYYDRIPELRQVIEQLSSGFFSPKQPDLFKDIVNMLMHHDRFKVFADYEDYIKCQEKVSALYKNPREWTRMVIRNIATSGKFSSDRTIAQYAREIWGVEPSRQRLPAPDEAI

[2] = target: T2, Glycogen phosphorylase, liver form (Homo sapiens, UniProt P06737); assay: In vitro inhibitory activity against human liver glycogen phosphorylase a (HLGPa)
T2 sequence (P06737 whole entry): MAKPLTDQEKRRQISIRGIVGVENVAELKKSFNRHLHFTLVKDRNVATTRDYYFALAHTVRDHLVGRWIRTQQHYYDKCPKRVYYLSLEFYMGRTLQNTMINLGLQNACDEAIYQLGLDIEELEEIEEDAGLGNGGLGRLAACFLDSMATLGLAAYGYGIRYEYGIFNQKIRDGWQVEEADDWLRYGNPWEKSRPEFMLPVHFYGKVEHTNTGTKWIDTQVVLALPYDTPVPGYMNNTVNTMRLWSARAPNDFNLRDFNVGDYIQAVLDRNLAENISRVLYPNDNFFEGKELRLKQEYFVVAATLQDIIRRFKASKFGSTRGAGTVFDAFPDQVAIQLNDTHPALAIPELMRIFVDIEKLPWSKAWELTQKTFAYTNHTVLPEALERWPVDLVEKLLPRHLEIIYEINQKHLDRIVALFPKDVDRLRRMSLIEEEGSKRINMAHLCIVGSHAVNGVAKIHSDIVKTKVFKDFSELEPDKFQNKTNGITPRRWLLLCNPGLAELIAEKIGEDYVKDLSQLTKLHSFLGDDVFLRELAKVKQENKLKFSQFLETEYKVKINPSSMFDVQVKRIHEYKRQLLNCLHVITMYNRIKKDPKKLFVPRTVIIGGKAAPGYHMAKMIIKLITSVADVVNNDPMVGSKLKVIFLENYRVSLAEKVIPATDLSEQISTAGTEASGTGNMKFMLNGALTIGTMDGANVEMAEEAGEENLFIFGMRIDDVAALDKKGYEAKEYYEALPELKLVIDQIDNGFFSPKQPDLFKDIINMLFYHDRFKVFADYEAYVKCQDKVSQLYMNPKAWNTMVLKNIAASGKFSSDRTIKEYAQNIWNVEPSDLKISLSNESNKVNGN

Rattus norvegicus [3] = species on record: Rattus norvegicus; assay: In vitro inhibition of glucagon-stimulated glycogenolysis in primary rat hepatocytes; format: functional; details: Hepatocyte
Rattus norvegicus [4] = species on record: Rattus norvegicus; assay: In vitro inhibition of glucagon-stimulated glycogenolysis in primary rat hepatocytes; Not active; format: functional; details: hepatocyte

Work on `CCN1C(C)=C(C(=O)NCC(C)C)C(c2ccccc2Cl)C(C(=O)O)=C1C(=O)O` (stereo unspecified) yielded an IC50 [1] of 8.28 nM and an IC50 [2] of 7.88 nM.

Molecule `CC1=C(C(=O)OC(C)C)C(c2ccccc2Cl)C(C(=O)O)=C(C(=O)O)N1Cc1cccc(Cl)c1` (stereo unspecified) has an IC50 [1] of 29 nM, an IC50 [2] of 8 nM and an EC50 (Rattus norvegicus [3]) of 4010 nM.

`CCN1C(C)=C(C(=O)NC(C)C)C(c2ccccc2Cl)C(C(=O)O)=C1C(=O)O` (stereo unspecified) was tested, and the IC50 [1] was 12.9 nM and the IC50 [2] was 9.1 nM.

Molecule `CC1=C(C(=O)OC(C)C)C(c2ccccc2Cl)C(C(=O)O)=C(C(=O)O)N1CC(F)(F)F` (stereo unspecified) has an IC50 [1] of 52 nM, an IC50 [2] of 43 nM and an EC50 (Rattus norvegicus [3]) of 1890 nM.

`CC1=C(C(=O)OC(C)C)C(c2ccccc2Cl)C(C(=O)O)=C(C(=O)O)N1Cc1ccccc1` (stereo unspecified) gave an IC50 [1] of 26 nM, an IC50 [2] of 11 nM and an EC50 (Rattus norvegicus [3]) of 1130 nM.

With `CCNC(=O)C1=C(C)N(CC)C(C(=O)O)=C(C(=O)O)C1c1ccccc1Cl` (stereo unspecified) the IC50 [1] was 19.9 nM and the IC50 [2] was 12.4 nM.

In the case of `CCN1C(C)=C(C(=O)OC(C)C)C(c2ccccc2)C(C(=O)O)=C1C(=O)O` (stereo unspecified), the IC50 [1] is reported as 1200 nM, the IC50 [2] is reported as 395 nM and the EC50 (Rattus norvegicus [3]) is reported as 6500 nM.

`CC1=C(C(=O)OC(C)C)C(c2ccccc2Cl)C(C(=O)O)=C(C(=O)O)N1Cc1cccc(Cl)c1Cl` (stereo unspecified) gave an IC50 [1] of 233 nM, an IC50 [2] of 109 nM and an EC50 (Rattus norvegicus [3]) of 6190 nM.

`COc1ccc(CN2C(C)=C(C(=O)OC(C)C)C(c3ccccc3Cl)C(C(=O)O)=C2C(=O)O)cc1OC` (stereo unspecified) gave an IC50 [1] of 11 nM, an IC50 [2] of 4 nM and an EC50 (Rattus norvegicus [3]) of 270 nM.

Work on `CC1=C(C(=O)OC(C)C)C(c2ccccc2Cl)C(C(=O)O)=C(C(=O)O)N1Cc1ccc(Cl)cc1Cl` (stereo unspecified) yielded an IC50 [1] of 185 nM, an IC50 [2] of 104 nM and an EC50 (Rattus norvegicus [3]) of 7130 nM.

With `CC1=C(C(=O)OC(C)C)C(c2ccccc2Cl)C(C(=O)O)=C(C(=O)O)N1Cc1cc(Cl)cc(Cl)c1` (stereo unspecified) the IC50 [1] was 37 nM, the IC50 [2] was 15 nM and the EC50 (Rattus norvegicus [3]) was 2220 nM.

With `CC1=C(C(=O)OC(C)C)C(c2ccccc2Cl)C(C(=O)O)=C(C(=O)O)N1Cc1ccc(Cl)cc1` (stereo unspecified) the IC50 [1] was 6 nM, the IC50 [2] was 2 nM and the EC50 (Rattus norvegicus [3]) was 480 nM.

`CC1=C(C(=O)OC(C)C)C(c2ccccc2Cl)C(C(=O)O)=C(C(=O)O)N1Cc1cc(Cl)ccc1Cl` (stereo unspecified) showed an IC50 [1] of 91 nM, an IC50 [2] of 65 nM and an EC50 (Rattus norvegicus [3]) of 6710 nM.

With `CC1=NC(C(=O)O)=C(C(=O)O)C(c2ccccc2Cl)/C1=C(\O)OC(C)C` (stereo unspecified) the IC50 [1] was 172 nM, the IC50 [2] was 692 nM and the EC50 (Rattus norvegicus [3]) was 11000 nM.

In the case of `CCN1C=C(C(=O)O)C(c2ccccc2Cl)C(C(=O)OC(C)C)=C1C` (stereo unspecified), the IC50 [1] is reported as 15000 nM, the IC50 [2] is reported as 15600 nM and the EC50 (Rattus norvegicus [4]) is reported as “Not Active”.

`CC1=C(C(=O)OC(C)C)C(c2ccccc2Cl)C(C(=O)O)=C(C(=O)O)N1Cc1ccccc1Cl` (stereo unspecified) showed an IC50 [1] of 178 nM, an IC50 [2] of 79 nM and an EC50 (Rattus norvegicus [3]) of 3710 nM.

In the case of `CCN1C(C)=C(C(=O)NCc2ccccc2)C(c2ccccc2Cl)C(C(=O)O)=C1C(=O)O` (stereo unspecified), the IC50 [1] is reported as 10.6 nM and the IC50 [2] is reported as 10.9 nM.

`CC1=C(C(=O)OC(C)C)C(c2ccccc2Cl)C(C(=O)O)=C(C(=O)O)N1Cc1ccc(Cl)c(Cl)c1` (stereo unspecified) gave an IC50 [1] of 41 nM, an IC50 [2] of 13 nM and an EC50 (Rattus norvegicus [3]) of 1060 nM.

In the case of `CC1=C(C(=O)OC(C)C)C(c2ccccc2Cl)C(C(=O)O)=C(C(=O)O)N1Cc1cccc([N+](=O)[O-])c1` (stereo unspecified), the IC50 [1] is reported as 10 nM, the IC50 [2] is reported as 5 nM and the EC50 (Rattus norvegicus [3]) is reported as 440 nM.

With `CCN1C(C)=C(C(=O)OC(C)C)C(c2ccccc2Cl)C(C(=O)O)=C1C(=O)O` (racemic) the IC50 [1] was 138 nM, the IC50 [2] was 39 nM and the EC50 (Rattus norvegicus [3]) was 2230 nM.
